Test results: ChEMBL document CHEMBL1156321, “Oxime esters as selective, covalent inhibitors of the serine hydrolase retinoblastoma-binding protein 9 (RBBP9)” (Bioorg Med Chem Lett, 2010)
Activity calls are given as the source filed them. The rule behind the calls is not given here.

Tests used:
Serine hydrolase RBBP9 [1] = biological target: T1, Serine hydrolase RBBP9 (Homo sapiens, UniProt O75884); assay: Displacement of fluorophosphate-rhodamine from RBBP9 transfected in human HEK293T cells proteomes after 30 mins by SDS-PAGE gel fluorescence assay; format: cell-based, HEK-293T
Target sequence in this assay (O75884 whole entry): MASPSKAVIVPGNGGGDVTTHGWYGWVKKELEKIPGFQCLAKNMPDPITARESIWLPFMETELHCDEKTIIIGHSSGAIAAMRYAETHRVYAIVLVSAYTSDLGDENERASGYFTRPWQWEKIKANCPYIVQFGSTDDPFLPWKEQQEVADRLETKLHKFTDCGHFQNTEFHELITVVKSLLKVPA

Serine hydrolase RBBP9 [2] = biological target: T1, Serine hydrolase RBBP9; assay: Displacement of fluorophosphate-rhodamine from RBBP9 transfected in human HEK293T cells proteomes at 20 uM after 30 mins by SDS-PAGE gel fluorescence assay; format: cell-based; conditions: HEK-293T
Target sequence in this assay (O75884 whole entry, looked up): as the sequence (O75884 whole entry) above

Serine hydrolase RBBP9 [3] = biological target: T1, Serine hydrolase RBBP9; assay: Displacement of fluorophosphate-rhodamine from recombinant RBBP9 transfected in mouse brain membrane proteomes after 30 mins by SDS-PAGE gel fluorescence assay; format: cell membranes
Target sequence in this assay (O75884 whole entry): as above

Serine hydrolase RBBP9 [4] = biological target: T1, Serine hydrolase RBBP9; assay: Displacement of phenylsulphonate-rhodamine from RBBP9 transfected in human MDA-MB-231 cells proteomes after 30 mins by SDS-PAGE gel fluorescence assay; format: cell-based
Target sequence in this assay (O75884 whole entry, looked up): as the sequence (O75884 whole entry) above

Serine hydrolase RBBP9 [5] = biological target: T1, Serine hydrolase RBBP9; assay: Displacement of fluorophosphate-rhodamine from RBBP9 transfected in human HEK293T cells proteomes at 7.9 uM after 30 mins by SDS-PAGE gel fluorescence assay; format: cell-based; conditions: HEK-293T
Target sequence in this assay (O75884 whole entry, looked up): as the sequence (O75884 whole entry) above

Serine hydrolase RBBP9 [6] = biological target: T1, Serine hydrolase RBBP9; assay: Displacement of fluorophosphate-rhodamine from recombinant RBBP9 transfected in mouse brain membrane proteomes at 200 uM after 30 mins by SDS-PAGE gel fluorescence assay; format: cell membranes
Target sequence in this assay (O75884 whole entry, looked up): as the sequence (O75884 whole entry) above

[7] = biological target: T2, Glutathione S-transferase omega-1 (Homo sapiens) (UniProt P78417); assay: Displacement of phenylsulphonate-rhodamine from GSTO1 in human MDA-MB-231 cells proteomes at 20 uM after 30 mins by SDS-PAGE gel fluorescence assay; format: cell-based
T2 sequence (whole entry): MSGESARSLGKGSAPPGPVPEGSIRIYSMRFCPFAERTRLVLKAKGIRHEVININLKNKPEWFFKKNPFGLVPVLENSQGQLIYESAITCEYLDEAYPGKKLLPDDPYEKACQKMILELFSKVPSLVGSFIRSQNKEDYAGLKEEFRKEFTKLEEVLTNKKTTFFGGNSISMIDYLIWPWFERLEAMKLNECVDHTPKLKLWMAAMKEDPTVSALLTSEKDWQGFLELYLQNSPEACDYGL

Structure (SMILES) | inhibition (Serine hydrolase RBBP9 [2]) | also measured
C/C(=N\OC(=O)c1ccc(F)cc1)c1nccs1 | 76% | IC50 (Serine hydrolase RBBP9 [1]): 5.7 µM
C/C(=N\OC(=O)c1ccccc1F)c1nccs1 | 64% | –
CC[C@H]1CN2CCc3cc(OC)c(OC)cc3[C@@H]2C[C@@H]1CC1NCCc2cc(OC)c(OC)cc21 (single isomer, unassigned) [EMETINE] | – | IC50 (Serine hydrolase RBBP9 [1]; hek-293t): 7.8 µM
COc1ccc(C(=O)ON=C2C(C)=CC(=O)C=C2C)cc1 | 48% | –
COc1ccc(C(=O)ON=C2C=C(C)C(=O)C(C)=C2)cc1 | 93% | IC50 (Serine hydrolase RBBP9 [3]): 1.5 µM; IC50 (Serine hydrolase RBBP9 [1]): 1.5 µM
C/C(=N\OC(=O)/C=C/c1ccccc1)c1nccs1 | 42% | –
COc1ccc(C(=O)O/N=C(\C)c2nccs2)cc1 | 60% | inhibition (Serine hydrolase RBBP9 [4]): inactive; inhibition (Serine hydrolase RBBP9 [5]): 39%; IC50 (Serine hydrolase RBBP9 [1]): 9.2 µM
C/C(=N\OC(=O)c1cc(F)ccc1F)c1nccs1 | 66% | –
C/C(=N\OC(=O)c1cccc(C(F)(F)F)c1)c1nccs1 | 46% | –
C/C(=N\OC(=O)c1c(-c2c(Cl)cccc2Cl)noc1C)c1nccs1 | 8% | –
C/C(=N\OC(=O)c1ccc([N+](=O)[O-])cc1)c1nccs1 | 15% | –
C/C(=N\OC(=O)c1ccc(Cl)cc1)c1nccs1 | 78% | inhibition (Serine hydrolase RBBP9 [4]): inactive; Activity (Serine hydrolase RBBP9 [6]): inactive; inhibition (Serine hydrolase RBBP9 [5]): 80%; IC50 (Serine hydrolase RBBP9 [1]): 1.9 µM
C/C(=N\OC(=O)c1cccc(Cl)c1)c1nccs1 | 63% | –
C/C(=N\OC(=O)c1c(-c2ccccc2Cl)noc1C)c1nccs1 | 17% | –
CC(=O)O/N=C(\C)c1nccs1 | 0% | –
COc1ccc(C(=O)O/N=C2/C=C(C)C(=O)C=C2C)cc1 | 76% | –
C#CCCC(=O)O/N=C(\C)c1nccs1 | 42% | –
C/C(=N\OC(=O)N1CCCCC1)c1nccs1 | 0% | –
C/C(=N\OC(=O)c1c(-c2c(F)cccc2Cl)noc1C)c1nccs1 | 14% | –
C/C(=N\OC(=O)C1CCCCC1)c1nccs1 | 91% | IC50 (Serine hydrolase RBBP9 [1]): 0.64 µM
C/C(=N\OC(=O)c1ccc(I)cc1)c1nccs1 | 66% | –
C/C(=N\OC(=O)c1ccccc1)c1nccs1 | 62% | –
CC1=CC(=NOC(=O)/C=C/c2ccccc2)C=C(C)C1=O | 78% | inhibition (Serine hydrolase RBBP9 [5]): 79%; inhibition [7]: Active; IC50 (Serine hydrolase RBBP9 [1]): 1.2 µM
C/C(=N\OC(=O)c1ccc(-c2ccccc2)cc1)c1nccs1 | 4% | –
